This is an account of results in PMC8371548 (BioTechniques, 2021).

Usually IC50 stands for the point on the concentration scale where inhibition reaches its midpoint. For orientation: EC50 means the concentration that produces a half-maximal response.

Experiment [1] deals with AR. To be noted: read-out: IC50 range in ICCVAM meta-analysis; cited from earlier work.
Experiment [2] has as its system H295R cells. As to the kind of experiment: H295R cell-based steroidogenesis assay. Details: species or system human. Conditions: for effect on testosterone production in words: 10^−11 to 10^−5 M.
For experiment [3], the system named is AR. To be noted: cited from earlier work.
The target in experiment [4] is T1, androgen receptor (AR) (Homo sapiens, UniProt P10275).
T1 sequence (P10275 1-920): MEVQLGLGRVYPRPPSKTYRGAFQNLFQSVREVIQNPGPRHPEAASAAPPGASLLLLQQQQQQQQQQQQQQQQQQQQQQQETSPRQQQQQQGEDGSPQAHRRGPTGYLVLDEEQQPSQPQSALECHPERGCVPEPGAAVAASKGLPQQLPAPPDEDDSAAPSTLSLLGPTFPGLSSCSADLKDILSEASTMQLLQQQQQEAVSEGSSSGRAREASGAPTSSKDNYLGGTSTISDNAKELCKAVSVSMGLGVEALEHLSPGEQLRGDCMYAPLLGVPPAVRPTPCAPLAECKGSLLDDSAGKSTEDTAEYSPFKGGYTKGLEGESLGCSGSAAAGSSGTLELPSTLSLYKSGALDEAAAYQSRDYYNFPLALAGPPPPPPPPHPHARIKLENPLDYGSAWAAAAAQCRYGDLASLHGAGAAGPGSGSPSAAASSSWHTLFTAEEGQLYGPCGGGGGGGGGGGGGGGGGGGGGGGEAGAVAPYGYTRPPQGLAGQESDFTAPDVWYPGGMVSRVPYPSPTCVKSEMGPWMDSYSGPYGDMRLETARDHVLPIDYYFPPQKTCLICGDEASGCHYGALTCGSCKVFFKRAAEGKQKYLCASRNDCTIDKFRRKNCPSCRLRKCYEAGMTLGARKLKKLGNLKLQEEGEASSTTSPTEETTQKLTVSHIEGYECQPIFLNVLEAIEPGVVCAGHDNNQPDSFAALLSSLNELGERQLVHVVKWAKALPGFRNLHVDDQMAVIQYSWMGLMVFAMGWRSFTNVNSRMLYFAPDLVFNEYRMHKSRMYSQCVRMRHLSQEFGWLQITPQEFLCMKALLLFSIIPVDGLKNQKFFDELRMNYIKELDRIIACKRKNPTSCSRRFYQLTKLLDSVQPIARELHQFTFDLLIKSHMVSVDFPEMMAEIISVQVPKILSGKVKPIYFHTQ
The format is cell-based.

Experiment [5] concerns AR. Conditions: cited from earlier work; for EC50: read-out: AR-EcoScreen assay EC50, ref Dennis et al. [18].
The test system of experiment [6] is AR. To be noted: at high concentrations (10^−5 M); cited from earlier work.
The subject of experiment [7] is AR. To be noted: cited from earlier work. The source holds these as a separate data set.
For experiment [8], the system named is AR. To be noted: cited from earlier work. The source holds these as a separate data set.

“Also recorded” adds a separate entry of the source.

For the compound `CC(O)(CS(=O)(=O)c1ccc(F)cc1)C(=O)Nc1ccc(C#N)c(C(F)(F)F)c1` (stereo not drawn) [Bicalutamide], the IC50 in experiment [1] was […].

Regarding `C#CC1(O)CC[C@H]2[C@@H]3CCC4=CC(=O)CC[C@@H]4[C@H]3CC[C@@]21CC` (mixture of isomers) [Norgestrel, norgestrel], the “effect on testosterone production in words” value (“effect … in words” below) in experiment [2] was “increased testosterone production”. Moreover, the EC50 in experiment [2] (Homo sapiens, NCI-H295R, read-out: H295R testosterone assay EC50) was 730 nM.

In the case of `C#C[C@]1(O)CC[C@H]2[C@@H]3CCc4cc(O)ccc4[C@H]3CC[C@@]21C` [17α-Ethinylestradiol, 17α-Ethynylestradiol], the “AR antagonist classification in AR-EcoScreen assay” value in experiment [3] is “AR antagonist”.

Take `C[C@]12C=CC3=C4CCC(=O)C=C4CC[C@H]3[C@@H]1CC[C@@H]2O` [17β-Trenbolone, 17ß-Trenbolone]: the “AR agonist activity in words” value in experiment [4] is reported as “strongly induced autobioluminescence; also recorded: induced autobioluminescent signal exceeding the maximal response of 5α-dihydrotestosterone”.

As for `C[C@]12CCC(=O)C=C1CC[C@@H]1[C@@H]2CC[C@]2(C)C(=O)CC[C@@H]12` [4-Androstenedione], in experiment [5], the concentration for a half-maximal effect (EC50) is […].

On to `C[C@]12CCC(=O)C=C1CC[C@@H]1[C@@H]2CC[C@@]2(C)[C@H]1CC[C@]2(C)O` [17α-Methyltestosterone], for which the EC50 in experiment [5] is […].

Consider `C[C@]12CCC(=O)C[C@@H]1CC[C@@H]1[C@@H]2CC[C@]2(C)[C@@H](O)CC[C@@H]12` [5α-Dihydrotestosterone], for which, in experiment [5], the EC50 was […].

With `CC(C)(O)C(=O)Nc1ccc([N+](=O)[O-])c(C(F)(F)F)c1` [Hydroxyflutamide], the “AR transcriptional activation activity” value in experiment [6] is “low AR transcriptional activation activity”. The results for the “effect … in words” value in experiment [2] and in experiment [2] (listed as hydroxyflutamide) were “did not alter testosterone production” and “did not change testosterone levels”, respectively. The half-inhibitory concentration (IC50) in experiment [1] is […].

With `C[C@]12C[C@H](O)[C@H]3[C@@H](CCC4=CC(=O)CC[C@@]43C)[C@@H]1CC[C@@H]2C(=O)CO` [Corticosterone], in experiment [7], the “AR transcriptional activity in MDA-kb2 assay” value was “Positive AR transcriptional activity”. Further, in experiment [5], the “AR agonist classification in AR-EcoScreen assay” value was “Positive AR transcriptional activity”. Further, in experiment [8], the “AR agonistic effects in yeast-based reporter assays” value is recorded as “failed to elicit positive AR agonistic effects”.

Turning to `CC#C[C@]1(O)CC[C@H]2[C@@H]3CCC4=CC(=O)CCC4=C3[C@@H](c3ccc(N(C)C)cc3)C[C@@]21C` [Mifepristone], the EC50 in experiment [5] is […].

Turning to `CC(C)C(=O)Nc1ccc([N+](=O)[O-])c(C(F)(F)F)c1` [Flutamide], the “effect … in words” value in experiment [2] was “did not induce autobioluminescence or change testosterone production”; in experiment [2] (listed as flutamide) it was “did not demonstrate a detectable change in testosterone production”.

As for `CC(=O)N1CCN(c2ccc(OCC3COC(Cn4ccnc4)(c4ccc(Cl)cc4Cl)O3)cc2)CC1` (stereo not drawn) [Ketoconazole], the “AR agonist classification in AR-EcoScreen assay” value in experiment [5] is given as “negative AR agonist”. Moreover, the “AR agonism response in yeast assays” value in experiment [8] was “positive AR agonism response”.

In the case of `C[C@]12CC[C@H]3[C@@H](CCC4=CC(=O)CC[C@@]43C)[C@@H]1CC[C@@H]2O` [Testosterone], in experiment [5], the EC50 was […].
